In ChEMBL document CHEMBL1138640, “Synthesis, radiolabeling, and preliminary biological evaluation of [3H]-1-[(S)-N,O-bis-(isoquinolinesulfonyl)-N-methyl-tyrosyl]-4-(o-tolyl)-piperazine, a potent antagonist radioligand for the P2X7 receptor” (Bioorg Med Chem Lett, 2004):

How the values were obtained:
[1] = test system: Cell line; experiment: inhibitory concentration against ATP-dependant calcium influx across plasma membrane of human monocytes; assay type: functional, cell-based
[2] = molecular target: T1, P2X purinoceptor 7 (Homo sapiens, UniProt Q99572); experiment: Maximum binding affinity towards P2X purinoceptor 7 expressed in HEK 293 cells; assay type: cell-based, HEK293
T1 sequence (Q99572 whole entry): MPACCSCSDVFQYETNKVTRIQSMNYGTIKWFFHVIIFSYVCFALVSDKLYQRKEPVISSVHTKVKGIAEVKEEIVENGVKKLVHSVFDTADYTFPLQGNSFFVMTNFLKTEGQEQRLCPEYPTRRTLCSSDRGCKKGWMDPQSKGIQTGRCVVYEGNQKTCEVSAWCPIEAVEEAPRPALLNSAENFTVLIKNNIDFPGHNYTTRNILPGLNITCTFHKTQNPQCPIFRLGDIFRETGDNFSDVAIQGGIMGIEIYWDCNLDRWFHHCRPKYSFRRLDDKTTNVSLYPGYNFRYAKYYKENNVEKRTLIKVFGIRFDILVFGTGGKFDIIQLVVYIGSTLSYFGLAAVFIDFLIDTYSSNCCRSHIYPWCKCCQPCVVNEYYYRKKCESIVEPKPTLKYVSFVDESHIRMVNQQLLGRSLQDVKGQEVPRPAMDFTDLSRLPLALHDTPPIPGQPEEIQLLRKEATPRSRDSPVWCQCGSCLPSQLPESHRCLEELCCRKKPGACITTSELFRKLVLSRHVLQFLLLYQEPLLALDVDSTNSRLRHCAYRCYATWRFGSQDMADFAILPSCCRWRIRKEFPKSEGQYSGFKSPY

[3] = molecular target: T1, P2X purinoceptor 7; experiment: Equilibrium constant for P2X purinoceptor 7 expressed in HEK 293 cells at 1 uM; assay type: cell-based, HEK293
[4] = molecular target: T2, P2X purinoceptor 7 (Homo sapiens) (UniProt Q99572); conditions: HEK293
T2 sequence (whole entry): T1 sequence (Q99572 whole entry)
Description: Association rate constant towards P2X purinoceptor 7 expressed in HEK 293 cells

[5] = molecular target: T2, P2X purinoceptor 7 (Homo sapiens); conditions: HEK293, 1 uM
Description: Dissociation rate constant for P2X purinoceptor 7 expressed in HEK 293 cells at 1 uM

Structure (SMILES) | IC50 [1] | Kd [2] | Kd [3] | k obs [4] | K-1 [5]
CN([C@@H](Cc1ccc(OS(=O)(=O)c2cccc3cnccc23)cc1)C(=O)N1CCN(c2ccccc2)CC1)S(=O)(=O)c1cccc2cnccc12 | 51 nM | – | – | – | –
Cc1ccccc1N1CCN(C(=O)[C@H](Cc2ccc(OS(=O)(=O)c3cccc4cnccc34)cc2)N(C)S(=O)(=O)c2cccc3cnccc23)CC1 | 15 nM | 3.57 nM | 3.57 nM | 0.000767 s⁻¹ | 0.025 min⁻¹
